Counter-ions that a name gives are not always drawn.
How the values were obtained:
[1] = target: T1, human serotonin transporter (Homo sapiens, UniProt P31645); test: hSERT receptor binding ([125I]-RTI-55 radioligand); details: membranes of HEK-293 cells transfected with human serotonin transporter cDNA; 50 pM [125I]-RTI-55; IC50 converted by Cheng-Prusoff; read-out: SERT Ki
T1 construct: expressed in transfected cells; host or cells: HEK-293
Experimental: (§1) Cell pastes of HEK-293 cells transfected with a human serotonin transporter cDNA were prepared. The cell pastes were resuspended in 400 to 700 ml of Krebs-HEPES assay buffer (25 mM HEPES, 122 mM NaCl, 3 mM KCl, 1.2 mM MgSO4, 1.3 mM CaCl2, and 11 mM glucose, pH 7.4) with a Polytron homogenizer at Setting 7 for 30 seconds. Aliquots of membranes (˜2.5 mg/ml protein) were stored in liquid nitrogen until used.
Assays were set up in FlashPlates pre-coated with 0.1% PEI in a total volume of 250 μl containing: test compound (10^−5M to 10^−12M), cell membranes, and 50 pM [^125I]-RTI-55 (Perkin Elmer, NEX-272; specific activity 2200 Ci/mmol). The reaction was incubated and gently agitated for 90 minutes at room temperature, and terminated by removal of assay volume. Plates were covered, and bound [^125I]-RTI-55 was determined using a Wallac Trilux Beta Plate Counter. Test compounds were run in duplicate, and specific binding was defined as the difference between binding in the presence and absence of 10 μM citalopram.
Excel and GraphPad Prism software were used for data calculation and analysis. IC50 values were converted to Ki values using the Cheng-Prusoff equation.

[2] = target: T2, human norepinephrine transporter (Homo sapiens, UniProt P23975); test: hNET receptor binding ([125I]-RTI-55 radioligand); details: membranes of HEK-293 cells transfected with human norepinephrine transporter cDNA; 50 pM [125I]-RTI-55; IC50 converted by Cheng-Prusoff; read-out: NET Ki
T2 construct: expressed in transfected cells; host or cells: HEK-293
Experimental: as §1, with “norepinephrine” for “serotonin”, “setting” for “Setting”, “(5” for “(˜2.5”
The binding assay was set up in Beckman deep-well polypropylene plates with a total volume of 250 μl containing: test compound (10^−5M to 10^−12M), cell membranes, and 50 pM [^125I]-RTI-55 (Perkin Elmer, NEX-272; specific activity 2200 Ci/mmol). The reaction was incubated by gentle agitation for 90 minutes at room temperature and was terminated by filtration through Whatman GF/C filter plates using a Brandel 96-well plate harvester. Scintillation fluid (100 μl) was added to each well, and bound [^125I]-RTI-55 was determined using a Wallac Trilux Beta Plate Counter. Test compounds were run in duplicate, and specific binding was defined as the difference between binding in the presence and absence of 10 μM desipramine.
Excel and GraphPad Prism software were used for data calculation and analysis. IC50 values were converted to K, values using the Cheng-Prusoff equation.

T2 sequence (P23975 whole entry): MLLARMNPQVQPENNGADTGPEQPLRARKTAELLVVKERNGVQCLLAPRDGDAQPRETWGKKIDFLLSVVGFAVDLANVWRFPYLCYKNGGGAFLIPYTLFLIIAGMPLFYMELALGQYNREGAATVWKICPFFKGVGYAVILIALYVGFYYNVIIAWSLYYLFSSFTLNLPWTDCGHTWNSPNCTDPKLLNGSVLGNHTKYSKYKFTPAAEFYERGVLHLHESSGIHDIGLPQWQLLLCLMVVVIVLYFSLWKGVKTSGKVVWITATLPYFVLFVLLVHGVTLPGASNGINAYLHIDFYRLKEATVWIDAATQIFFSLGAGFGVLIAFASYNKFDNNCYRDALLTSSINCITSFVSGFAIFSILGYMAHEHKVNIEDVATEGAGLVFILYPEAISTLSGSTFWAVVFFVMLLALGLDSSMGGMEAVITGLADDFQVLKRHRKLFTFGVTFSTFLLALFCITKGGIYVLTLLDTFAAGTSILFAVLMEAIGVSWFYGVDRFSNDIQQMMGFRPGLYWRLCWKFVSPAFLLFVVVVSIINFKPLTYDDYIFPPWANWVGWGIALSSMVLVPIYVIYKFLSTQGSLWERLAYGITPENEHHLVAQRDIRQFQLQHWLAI
T1 sequence (P31645 whole entry): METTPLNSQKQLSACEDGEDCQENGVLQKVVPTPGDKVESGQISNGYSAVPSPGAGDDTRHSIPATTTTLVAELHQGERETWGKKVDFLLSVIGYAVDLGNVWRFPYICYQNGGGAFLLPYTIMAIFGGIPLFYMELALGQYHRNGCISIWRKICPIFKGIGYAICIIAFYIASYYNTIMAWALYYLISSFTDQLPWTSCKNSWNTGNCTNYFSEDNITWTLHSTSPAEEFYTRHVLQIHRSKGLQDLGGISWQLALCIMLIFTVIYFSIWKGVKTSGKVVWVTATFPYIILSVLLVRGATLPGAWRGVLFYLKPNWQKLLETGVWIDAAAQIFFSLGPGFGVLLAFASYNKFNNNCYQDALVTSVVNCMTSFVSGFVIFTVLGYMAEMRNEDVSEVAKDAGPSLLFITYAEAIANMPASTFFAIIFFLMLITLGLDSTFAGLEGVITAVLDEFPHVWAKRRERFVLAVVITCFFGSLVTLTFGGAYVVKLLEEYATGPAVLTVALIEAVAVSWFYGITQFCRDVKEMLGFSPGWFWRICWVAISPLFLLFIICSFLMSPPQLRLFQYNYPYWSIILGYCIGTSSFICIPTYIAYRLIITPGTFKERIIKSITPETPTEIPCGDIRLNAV

Compound | Ki [1] [µM] | Ki [2] [µM]
COc1ccc(-c2ccc(F)cc2CO[C@H]2CCNC2)c(OC)c1 [Example D-77, (S)-3-(4-Fluoro-2′,4′-dimethoxy-biphenyl-2-ylmethoxy)-pyrrolidine] | 1.4 | 1.35
Oc1ccccc1-c1ccc(F)cc1CO[C@H]1CCNC1 [Example D-103, (S)-4′-Fluoro-2′-(pyrrolidin-3-yloxymethyl)-biphenyl-2-ol] | 1.09 | 0.65
Fc1cc(F)cc(-c2ccc(F)cc2CO[C@H]2CCNC2)c1 [Example D-86, (S)-(4,3′,5′-Trifluoro-biphenyl-2-ylmethoxy)-pyrrolidine] | 0.0762 | 0.278
Fc1ccccc1-c1cccc(F)c1CO[C@H]1CCNC1 [Example A-30, (3S)-3-[(2′,3-difluorobiphenyl-2-yl)methoxy]pyrrolidine fumarate] | 0.247 | 0.0801
COc1ccc(-c2ccccc2CO[C@H]2CCNC2)cc1C [Example A-10, (S)-3-(4′-Methoxy-3′-methyl-biphenyl-2-ylmethoxy)-pyrrolidine fumarate] | 0.116 | 0.0228
COc1ccc(-c2ccccc2CO[C@H]2CCNC2)cc1F [Example D-21, (S)-3-(3′-Fluoro-4′-methoxy-biphenyl-2-ylmethoxy)-pyrrolidine] | 0.431 | 0.113
Fc1ccc(-c2cccc(Cl)c2)c(CO[C@H]2CCNC2)c1 [Example D-108, (S)-3-(3′-Chloro-4-fluoro-biphenyl-2-ylmethoxy)-pyrrolidine] | 0.057 | 0.103
Fc1ccc(F)c(-c2ccccc2CO[C@H]2CCNC2)c1 [Example D-8, (S)-3-(2′,5′-Difluoro-biphenyl-2-ylmethoxy)-pyrrolidine] | 0.208 | 0.0219
Fc1cccc(-c2c(F)cccc2CO[C@H]2CCNC2)c1F [Example A-26, (S)-3-(6,2′,3′-Trifluoro-biphenyl-2-ylmethoxy)-pyrrolidine hydrochloride] | 0.622 | 0.0306
c1ccc(-c2ccc3c(c2)CCO3)c(CO[C@H]2CCNC2)c1 [Example D-32, (S)-3-[2-(2,3-Dihydro-benzofuran-5-yl)-benzyloxy]-pyrrolidine] | 0.549 | 0.516
Cc1cccc(-c2ccccc2CO[C@H]2CCNC2)c1 [Example D-16, (S)-3-(3′-Methyl-biphenyl-2-ylmethoxy)-pyrrolidine] | 0.0247 | 0.0635
COc1ccc(-c2ccc(F)cc2CO[C@H]2CCNC2)cc1C [Example D-98, (S)-3-(4-Fluoro-4′-methoxy-3′-methyl-biphenyl-2-ylmethoxy)-pyrrolidine] | 0.292 | 0.187
CC(=O)c1ccc(-c2ccccc2CO[C@H]2CCNC2)cc1 [Example D-47, (S)-1-[2′-(Pyrrolidin-3-yloxymethyl)-biphenyl-4-yl]-ethanone] | 0.906 | 4.12
Fc1cc(CO[C@H]2CCNC2)c(-c2cccc(F)c2F)cc1F [Example A-31, (3S)-3-[(2′,3′,4,5-tetrafluorobiphenyl-2-yl)methoxy]pyrrolidine fumarate] | 0.142 | 0.0463
COc1cc(-c2ccc(F)cc2CO[C@H]2CCNC2)cc(OC)c1OC [Example D-105] | 0.577 | 1.52
CC(=O)c1cccc(-c2ccccc2CO[C@H]2CCNC2)c1 [Example D-41] | 0.345 | 1.28
Cc1cc(C)n(-c2cccc(-c3ccccc3CO[C@H]3CCNC3)c2)n1 [Example D-59, (S)-3,5-Dimethyl-1-[2′-(pyrrolidin-3-yloxymethyl)-biphenyl-3-yl]-1H-pyrazole] | 0.0578 | ≥ 10
COc1ccc(-c2ccccc2CO[C@H]2CCNC2)cc1 [Example D-28, (S)-3-(4′-Methoxy-biphenyl-2-ylmethoxy)-pyrrolidine] | 1.1 | 0.301
N#Cc1cccc(-c2cc(F)ccc2F)c1CO[C@H]1CCNC1 [Example E-1, (S)-2′,5′-Difluoro-2-(pyrrolidin-3-yloxymethyl)-biphenyl-3-carbonitrile fumarate] | 1.12 | 0.336

Compound | Ki [1] [µM] | Ki [2] [µM]
Fc1cccc(-c2ccccc2CO[C@@H]2CCNC2)c1F [Example A-15, (R)-3-(2′,3′-Difluoro-biphenyl-2-ylmethoxy)-pyrrolidine fumarate] | 0.185 | 0.0809
c1ccc(-c2ccncc2)c(CO[C@H]2CCNC2)c1 [Example A-28, (S)-4-[2-(Pyrrolidin-3-yloxymethyl)-phenyl]-pyridine hydrochloride] | 1.76 | 4.86
Fc1ccc(-c2ccc(C(F)(F)F)cc2)c(CO[C@H]2CCNC2)c1 [Example D-79, (S)-3-(4-Fluoro-4′-trifluoromethyl-biphenyl-2-ylmethoxy)-pyrrolidine] | 0.206 | 6.78
COc1cccc(-c2ccccc2CO[C@H]2CCNC2)c1 [Example D-22, (S)-3-(3′-Methoxy-biphenyl-2-ylmethoxy)-pyrrolidine] | 0.0273 | 0.139
c1ccc(-c2ccccc2-c2ccccc2CO[C@H]2CCNC2)cc1 [Example D-34, (S)-3-([1,1′,2′,1″]Terphenyl-2-ylmethoxy)-pyrrolidine] | 2.75 | 0.554
Cc1cc(C)cc(-c2ccccc2CO[C@H]2CCNC2)c1 [Example D-27, (S)-3-(3′,5′-Dimethyl-biphenyl-2-ylmethoxy)-pyrrolidine] | 0.0919 | 0.295
Fc1ccc(F)c(-c2cccnc2CO[C@H]2CCNC2)c1 [Example C-1, (S)-3-(2,5-Difluoro-phenyl)-2-(pyrrolidin-3-yloxymethyl)-pyridine fumarate] | 0.108 | 0.382
Fc1ccc(-c2ccccc2CO[C@H]2CCNC2)cc1 [Example A-8, (S)-3-(4′-Fluoro-biphenyl-2-ylmethoxy)-pyrrolidine maleate] | 0.0205 | 0.0153
Clc1ccc(-c2ccccc2CO[C@H]2CCNC2)cc1Cl [Example D-4, (S)-3-(3′,4′-Dichloro-biphenyl-2-ylmethoxy)-pyrrolidine] | 0.0183 | 0.0151
COc1ccc(C(C)C)cc1-c1ccccc1CO[C@H]1CCNC1 [Example D-49, (S)-(5′-Isopropyl-2′-methoxy-biphenyl-2-ylmethoxy)-pyrrolidine] | 2.97 | 4.23
Cc1ccc(-c2ccc(F)cc2CO[C@H]2CCNC2)cc1 [Example D-63, (S)-3-(4-Fluoro-4′-methyl-biphenyl-2-ylmethoxy)-pyrrolidine] | 0.423 | 0.0366
COc1ccc(F)cc1-c1ccc(F)cc1CO[C@H]1CCNC1 [Example D-64, (S)-3-(4,5′-Difluoro-2′-methoxy-biphenyl-2-ylmethoxy)-pyrroldine] | 0.656 | 1.29
COc1ccc(-c2ccccc2CO[C@H]2CCNC2)cc1OC [Example D-36, (S)-3-(3′,4′-Dimethoxy-biphenyl-2-ylmethoxy)-pyrrolidine] | 0.15 | 0.635
OCc1cccc(-c2ccc(F)cc2CO[C@H]2CCNC2)c1 [Example D-87, (S)-[4′-Fluoro-2′-(pyrrolidin-3-yloxymethyl)-biphenyl-3-yl]-methanol] | 0.124 | 3.08
c1ccc(-c2cccc3ccccc23)c(CO[C@H]2CCNC2)c1 [Example D-15, (S)-3-(2-Naphthalen-1-yl-benzyloxy)-pyrrolidine] | 0.272 | 0.0554
CCOc1cccc(-c2ccccc2CO[C@H]2CCNC2)c1 [Example D-1, (S)-3-(3′-Ethoxy-biphenyl-2-ylmethoxy)-pyrrolidine] | 0.0392 | 0.00484
Fc1cccc(-c2cccnc2CO[C@H]2CCNC2)c1F [Example C-2, (S)-3-(2,3-Difluoro-phenyl)-2-(pyrrolidin-3-yloxymethyl)-pyridine fumarate] | 0.0746 | 0.845
NC(=O)c1cccc(-c2ccc(F)cc2CO[C@H]2CCNC2)c1 [Example D-117, (S)-4′-Fluoro-2′-(pyrrolidin-3-yloxymethyl)-biphenyl-3-carboxylic acid amide] | 2.16 | ≥ 10
